Measured values from patent US20170095524A1, “METHODS FOR MODULATING CANCER CELLS AND STEM CELLS” (The Scripps Research Institute, priority 2014, published 2017).

Key:
LIN28 = assay: Western blot of LIN28 levels in P19 cells treated with IGF1R and calpain inhibitors; format: cell-based; details: acute treatment (~12 hrs)
Source text: FIGS. 4A-4B show regulation of LIN28 levels by RBM3, IGF1R, and calpain. (A) Western blot showing the effect of RBM3 knock-down (siRNA) on LIN28 levels in P19 cells treated at the neurosphere stage with (or without) retinoic acid (RA) to induce neural differentiation. RBM3 knock-down increases LIN28 and blocks the ability of RA to decrease LIN28. (B) Western blots showing reduction of LIN28 in P19 cells following acute treatment (˜12 hrs) with inhibitors of IGF1R and calpain (each of which increases the expression of the dephosphorylated form of RBM3). […] HDAC is a loading control.
FIGS. 7A-7D show results from additional studies of reducing LIN28 levels via synergistic dual inhibitor strategies. (A & B) Graphs of changes in RBM3 and LIN28 expression in P19 cells treated with the IGF1R inhibitor PPP (10 nM), the calpain inhibitor calpeptin (Cpep, 50 μM), and a combination of PPP plus Cpep (A: n=10-14; B: n=20-24). (C) (top panels) Example of Westerns of LIN28 in P19 cells exposed to PPP, Cpep, and PPP+Cpep; (bottom panels) Example of Westerns of LIN28 and RBM3 in samples from P19 cells treated in triplicate with control and Cpep+PPP conditions. (D) Fold change in let-7 family miRNAs and miR-21 in P19 cells treated with PPP+Cpep as measured by qRT-PCR (n=4). All treatments were for 36 hours. […]

RBM3 = assay: 2D Western blot of RBM3 phosphorylation forms in P19 cells after calpain inhibition; format: cell-based
Source text: (Top) 2D Western blot of RBM3 in vehicle-treated (DMSO) P19 cells. Red arrows point to exogenously expressed mutant of RBM3 (A4F) with 4 C-term Y to F mutations, and to two phosphorylated endogenous isoforms of RBM3 that differ by a single arginine (Arg). […] A basic spot not present in the control condition appears that corresponds to the pI of dephosphorylated Arg+RBM3, the form of RBM3 that preferentially associates with pre-miRNAs. We further observed that calpain inhibition rescues expression of dephosphorylated RBM3 in pluripotent cells. Calpains are Ca^++-activated cysteine proteases that regulate diverse cellular processes. Calpain's role in pluripotent and cancerous cells prompted us to test whether it regulates the expression of the dephosphorylated form of RBM3 in pluripotent cells (and accounts for the difficulty in expressing non-phosphorylatable mutants in these cells).

Row | SMILES | LIN28 levels (Western blot) (LIN28; PPP 10 nM) | LIN28 levels (Western blot) (LIN28; Cpep 50 μM) | RBM3 pI distribution (2D Western); basic spot corresponding to dephosphorylated Arg+RBM3 appears (RBM3; P19 cells incubated with calpain inhibitor vs DMSO vehicle) | levels of a non-phosphorylatable mutant of RBM3 (RBM3; pluripotent P19 cells) | levels of the endogenous dephosphorylated form of RBM3 that binds pre-miRNAs (dephos Arg+) (RBM3; pluripotent P19 cells)
1 | COc1cc([C@@H]2c3cc4c(cc3[C@H](O)[C@H]3COC(=O)[C@@H]23)OCO4)cc(OC)c1OC [picropodophyllin] | reduces LIN28 levels | – | – | – | –
2 | CCCC[C@@H](C=O)NC(=O)[C@H](CC(C)C)NC(=O)OCc1ccccc1 [calpeptin] | – | reduces LIN28 levels | shift in RBM3 pI distribution | increased | increased
